Measurements: patent publication US4649139A, “1,2,4-triazines” (Burroughs Wellcome Co., priority 1983, dated 1987)
pIC50: −log10 of the molar value.

What was measured:
[1] = system: aconitine-induced ventricular arrhythmias in anaesthetised rats; assay: animal or person; format: in vivo, Male Wistar rats; conditions: for % decrease in DBP: resting diastolic blood pressure; for amount of aconitine required to elicit ventricular arrhythmia (in words): pretreatment i.v., versus control animals
Description: Male Wistar rats weighing 200-300 g were used. Anaesthesia was induced with a halothane:air mixture and maintained by intravenous administration of a chloralose/pentobarbitone sodium mixture (3 mg/ml pentobarbitone sodium+9.5 mg/ml chloralose) after insertion of a femoral vein cannula. A tracheal cannula was inserted and the animal was respired via a Palmer small animal respiration pump (72 strokes/min and approx 1 ml/100 g). Rectal temperature was thermostatically maintained at 37° C. throughout the experiment. Cannulae were placed in a jugular vein for administration of aconitine and a carotid artery for continuous measurement of blood pressure. Subdermal needle electrodes were inserted for the recording of electrocardiograms throughout the experiment.
When the blood pressure of the animal had stabilised for 10-15 minutes, aconitine (dissolved in distilled water+HCl and diluted in 5% dextrose) was infused via the jugular vein cannula at a rate of 1 μg/min (0.03 mls/min). The total dose of aconitine required to produce ventricular tachycardia or ventricular fibrillation (VT/VF) of at least 1 sec duration was taken as the endpoint of the assay.
Anti-arrhythmic activity was assessed by pretreating animals randomly with drug or vehicle 15 mins prior to aconitine infusion and comparing the dose of aconitine necessary to induce ventricular arrhythmias in treatment groups with that of control groups. The compounds in accordance with the invention were administered as the mesylate or hydrochloride salt prepared immediately before use in a 5% dextrose solution. All drugs were administered via a femoral venous cannula in a dose volume of 0.5 ml.

[2] = system: guinea-pig right ventricular muscle; assay: Guinea-pig right ventricular muscle preparation (Vmax of phase 0 of the action potential); format: cell-based, male guinea-pigs; conditions: Cavia porcellus; stimulated at 1 Hz; 0 to 3×10^-4 M in modified Tyrodes solution; read-out: EC50 (50% reduction in Vmax)
Text: Guinea-pig right ventricular muscle preparation: (Campbell, Brit.J.Pharmac., 1982, 77, 541-548)
Strips of right ventricle excised from male guinea-pigs were electrically stimulated at a frequency of 1 Hz with punctate, bipolar silver wire electrodes.

[3] = system: beagle dogs; assay: Toxicity in dogs, daily administration for 14 days; conditions: two to three times the effective dose, daily for 14 days
[4] = Stability of the base; format: physicochemical; conditions: free base
[5] = Rattus norvegicus, iv, 0.25 h, read-out: % increase in aconitine to elicit VT/VF

| Compound | change in vivo at 1 mg/kg [1, 5] [%] | % decrease in DBP ([1]; dose 1 mg/kg (i.v.)) [%] | other results |
| --- | --- | --- | --- |
| CCN(CC)CCNC(=O)c1ccc(N)cc1 [Procainamide, reference compound] |  |  | change in vivo at 20 mg/kg [1, 5]: 11%; % decrease in DBP ([1]; dose 20 mg/kg (i.v.)): 22%; amount of aconitine required to elicit ventricular arrhythmia (in words) [1]: increased the amount of aconitine required to elicit the same ventricular arrhythmia |
| CCCn1nc(-c2cccc(Cl)c2Cl)c(N)nc1=N [Example 10, 5(3)-Amino-6-(2,3-dichlorophenyl)-2,3(2,5)-dihydro-3(5)-imino-2-n-propyl-1,2,4-triazine] | 225 | 3 |  |
| N=c1nc(N)c(-c2cccc(Cl)c2Cl)nn1Cc1ccccc1 [Example 12, 5(3)-Amino-6-(2,3-dichlorophenyl)-2,3(2,5)-dihydro-3(5)-imino-2-benzyl-1,2,4-triazine] | 14 | 5 |  |
| C=C[C@H]1C[N@@]2CC[C@H]1C[C@@H]2[C@@H](O)c1ccnc2ccc(OC)cc12 [Quinidine, reference compound] |  |  | change in vivo at 10 mg/kg [1, 5]: 8%; % decrease in DBP ([1]; dose 10 mg/kg (i.v.)): 43%; amount of aconitine required to elicit ventricular arrhythmia (in words) [1]: increased the amount of aconitine required to elicit the same ventricular arrhythmia |
| CC(C)n1nc(-c2cccc(Cl)c2Cl)c(N)nc1=N [Example 4, 5(3)-Amino-6-(2,3-dichlorophenyl)-2,3(2,5)-dihydro-3(5)-imino-2-isopropyl-1,2,4-triazine] | 490 | 13 | pIC50 [2]: 5.66; toxicity (in words) [3]: No marked toxicity was observed |
| O=C1NC(=O)C(c2ccccc2)(c2ccccc2)N1 [Phenytoin, reference compound] |  |  | change in vivo at 10 mg/kg [1, 5]: 19%; % decrease in DBP ([1]; dose 10 mg/kg (i.v.)): 4%; amount of aconitine required to elicit ventricular arrhythmia (in words) [1]: increased the amount of aconitine required to elicit the same ventricular arrhythmia |
| CCCCCCCOc1ccccc1-c1nn(C)c(=N)nc1N [Example 17, 5(3)-Amino-6-(2-n-heptyloxyphenyl)-2,3(2,5)-dihydro-3(5)-imino-2-methyl-1,2,4-triazine] | 154 | 3 |  |
| Cn1nc(-c2c(F)cccc2Cl)c(N)nc1=N [Example 6, 5(3)-Amino-6-(2-chloro-6-fluorophenyl)-2,3(2,5)-dihydro-3(5)-imino-2-methyl-1,2,4-triazine] |  |  | change in vivo at 5 mg/kg [1, 5]: 149%; % decrease in DBP ([1]; dose 5 mg/kg (i.v.)): 1% |
| COc1ccccc1-c1nn(C)c(=N)nc1N [Example 8, 5(3)-Amino-6-(2-methoxyphenyl)-2,3(2,5)-dihydro-3(5)-imino-2-methyl-1,2,4-triazine] |  |  | change in vivo at 10 mg/kg [1, 5]: 51%; % decrease in DBP ([1]; dose 10 mg/kg (i.v.)): 8% |
| Cn1nc(-c2cccc(Cl)c2Cl)c(N)nc1=N [Example 1, 5(3)-Amino-6-(2,3-dichlorophenyl)-2,3(2,5)-dihydro-3(5)-imino-2-methyl-1,2,4-triazine] | 29 | 11 | pIC50 [2]: 3.89 |
| Cn1nc(-c2cc(Cl)cc(Cl)c2Cl)c(N)nc1=N [Example 13, 5(3)-Amino-6-(2,3,5-trichlorophenyl)-2,3(2,5)-dihydro-3(5)-imino-2-methyl-1,2,4-triazine] | 246 | 1 |  |
| Cn1nc(-c2ccc(Cl)cc2Cl)c(N)nc1=N [Example 11, 5(3)-Amino-6-(2,4-dichlorophenyl)-2,3(2,5)-dihydro-3(5)-imino-2-methyl-1,2,4-triazine] | 33 | 7 |  |
| CCCOc1ccccc1-c1nn(C)c(=N)nc1N [Example 16, 5(3)-Amino-6-(2-n-propyloxyphenyl)-2,3(2,5)-dihydro-3(5)-imino-2-methyl-1,2,4-triazine] | 15 | 3 |  |
| CC(C)NCC(O)COc1cccc2ccccc12 (centres unmarked) [Propranolol, reference compound] | 51 | 0 | amount of aconitine required to elicit ventricular arrhythmia (in words) [1]: increased the amount of aconitine required to elicit the same ventricular arrhythmia |
| Cn1nc(-c2cc(Cl)ccc2Cl)c(N)nc1=N [Example 2, 5(3)-Amino-6-(2,5-dichlorophenyl)-2,3(2,5)-dihydro-3(5)-imino-2-methyl-1,2,4-triazine] |  |  | change in vivo at 5 mg/kg [1, 5]: 440%; % decrease in DBP ([1]; dose 5 mg/kg (i.v.)): 10% |
| COc1ccc(CCN(C)CCCC(C#N)(c2ccc(OC)c(OC)c2)C(C)C)cc1OC (centres unmarked) [Verapamil, reference compound] | 84 | 68 | amount of aconitine required to elicit ventricular arrhythmia (in words) [1]: increased the amount of aconitine required to elicit the same ventricular arrhythmia |
| CCCCCn1nc(-c2cccc(Cl)c2Cl)c(N)nc1=N [Example 18, 5(3)-Amino-6-(2,3-dichlorophenyl)-2,3(2,5)-dihydro-3(5)-imino-2-n-pentyl-1,2,4-triazine] | 46 | 1 | stability of the base (in words) [4]: unstable |
| Cn1nc(-c2ccccc2)c(N)nc1=N [Example 5, 5(3)-Amino-6-phenyl-2,3(2,5)-dihydro-3(5)-imino-2-methyl-1,2,4-triazine] |  |  | change in vivo at 5 mg/kg [1, 5]: 30%; % decrease in DBP ([1]; dose 5 mg/kg (i.v.)): 5% |
| CCCCCOc1ccc(-c2nn(C)c(=N)nc2N)cc1 [Example 14, 5(3)-Amino-6-(4-n-pentyloxyphenyl)-2,3(2,5)-dihydro-3(5)-imino-2-methyl-1,2,4-triazine] | 8 | 2 |  |
| CCCCCOc1ccccc1-c1nn(C)c(=N)nc1N [Example 3, 5(3)-Amino-6-(2-n-pentyloxyphenyl)-2,3(2,5)-dihydro-3(5)-imino-2-methyl-1,2,4-triazine] | 144 | 8 | pIC50 [2]: 5.23 |
| Cn1nc(-c2ccccc2Cl)c(N)nc1=N [Example 9, 5(3)-Amino-6-(2-chlorophenyl)-2,3(2,5)-dihydro-3(5)-imino-2-methyl-1,2,4-triazine] | 32 | 4 |  |
| Cn1nc(-c2ccccc2I)c(N)nc1=N [Example 7, 5(3)-Amino-6-(2-iodophenyl)-2,3(2,5)-dihydro-3(5)-imino-2-methyl-1,2,4-triazine] |  |  | change in vivo at 5 mg/kg [1, 5]: 106%; % decrease in DBP ([1]; dose 5 mg/kg (i.v.)): 13% |
| CCN(CC)CC(=O)Nc1c(C)cccc1C [Lidocaine, reference compound] |  |  | change in vivo at 10 mg/kg [1, 5]: 44%; % decrease in DBP ([1]; dose 10 mg/kg (i.v.)): 1%; amount of aconitine required to elicit ventricular arrhythmia (in words) [1]: increased the amount of aconitine required to elicit the same ventricular arrhythmia |
| CCCc1ccccc1-c1nn(C)c(=N)nc1N [Example 15, 5(3)-Amino-6-(2-n-propylphenyl)-2,3(2,5)-dihydro-3(5)-imino-2-methyl-1,2,4-triazine] | 12 | 5 |  |
